Data published in patent publication US6277829A, “Process for preparing of aqueous formulation for opthalmic use” (S.I.F.I. Societa Industria Farmaceutica Italiana S.p.A., priority 1999, dated 2001).
Values after ≈ are worked out from the molar mass of the structure shown.

What was measured:
[1] = in vivo; conditions: rabbit, topical or ocular, Ct (tissue concentration of azithromycin)
Protocol: (§1) Twelve male white New Zealand rabbits (weighing 1.8-2.3 kg) have been randomly divided in three groups (consisting of four animals each).
(§2) I Group: three instillations (animals have been sacrificed 6 hours after the first dosing)
(§3) II Group: six instillations (animals have been sacrificed 12 hours after the first dosing)
(§4) III Group: six instillations (animals have been sacrificed 24 hours after the first dosing)
(§5) Aqueous humor has been drawn away with a 23-gauge needle attached to an insulin syringe of 1 ml. After enucleation the cornea has been excised at the limbus and removed from the eyeball. All specimens have been carefully weighed, then immediately frozen at -20° C. […] Each specimen has been ground and homogenized with 1 ml of PBS (2 min., 24,000 rpm). The suspension has been mixed with an equal volume of acetonitrile and stored at 0° C. After 1 hour, the samples have been centrifuged at 0° C. […] Aqueous humor has been directly mixed with acetonitrile before being centrifuged.

[2] = tested on: gram-negative organisms; conditions: some gram-negative organisms, compared with other macrolides; cited from earlier work
[3] = Protocol: The final solution (100 ml), has been sterilized and distributed in appropriate vials.
[4] = Azithromycin distribution in aqueous humor after topical application; format: in vivo, white New Zealand rabbits; conditions: detection limit 3.8
Protocol: as §1, §2, §3, §4, §5

[5] = tested on: H. influenzae ATCC 49247; assay: In vitro antibacterial activity, MIC; format: cell-based; conditions: Haemophilus influenzae
Excerpt: (§6) In vitro bacteriostatic/bactericidal activity of azithromycin in different ophthalmic solutions has been evaluated as a function of ([H+]). Assessment of the activity it has been carried out by standardized method recommended by the National Committee for Clinical Laboratory Standards (NCCLS). In particular, three azithromycin solutions at different pH (6.5, 7.2, 7.8) in citrate-phosphate have been examined. Accordingly, three aliquots of Mueller-Hinton broth have been adjusted to the same pH of the azithromycin solutions (three) to be tested.
(§7) MIC values (μg/ml) have been measured by turbidity standard method after incubation of azithromycin aliquots, at the different pH, ranging from 18 to 24 h. Incubation for Staphylococcus spp. and Pseudomonas spp. needs aerobic conditions whereas Streptococcus spp. and Haernophilus spp. require partial anaerobic conditions during the period of incubation (5%, CO2).
(§8) Concentration of azithromycin able to inhibit the growth of the bacteria, after the period of incubation, is defined as the minimum inhibitory concentration (MIC).

[6] = tested on: S. epidermidis ATCC 12228; assay: In vitro antibacterial activity, MIC; format: cell-based; conditions: Staphylococcus epidermidis
Excerpt: as §6, §7, §8

[7] = tested on: S. aureus ATCC 25923; assay: In vitro antibacterial activity, MIC; format: cell-based; conditions: Staphylococcus aureus
Excerpt: as §6, §7, §8

[8] = tested on: S. aureus ATCC 29213; assay: In vitro antibacterial activity, MIC; format: cell-based; conditions: Staphylococcus aureus
Excerpt: as §6, §7, §8

[9] = tested on: S. aureus ATCC 6538P; assay: In vitro antibacterial activity, MIC; format: cell-based; conditions: Staphylococcus aureus, ATCC6538P
Excerpt: as §6, §7, §8

[10] = tested on: Ps. aeruginosa ATCC 9027; assay: In vitro antibacterial activity, MIC; format: cell-based; conditions: Pseudomonas aeruginosa
Excerpt: as §6, §7, §8

[11] = tested on: H. influenzae ATCC 9006; assay: In vitro antibacterial activity, MIC; format: cell-based; conditions: Haemophilus influenzae
Excerpt: as §6, §7, §8

[12] = tested on: St. Pryogenes ATCC 21547; assay: In vitro antibacterial activity, MIC; format: cell-based
Excerpt: as §6, §7, §8

[13] = tested on: Ps. aeruginosa ATCC 27853; assay: In vitro antibacterial activity, MIC; format: cell-based; conditions: Pseudomonas aeruginosa
Excerpt: as §6, §7, §8

[14] = tested on: St. Pneumoniae ATCC 49619; assay: In vitro antibacterial activity, MIC; format: cell-based; conditions: Streptococcus pneumoniae
Excerpt: as §6, §7, §8

[15] = in vivo; set-up: species or system white New Zealand rabbits; conditions: rabbit, topical or ocular, Ct (tissue concentration of azithromycin)
Protocol: as §1, §2, §3, §4, §5

## CC[C@H]1OC(=O)[C@H](C)[C@@H](O[C@H]2C[C@@](C)(OC)[C@@H](O)[C@H](C)O2)[C@H](C)[C@@H](O[C@@H]2O[C@H](C)C[C@H](N(C)C)[C@H]2O)[C@](C)(O)C[C@@H](C)CN(C)[C@H](C)[C@@H](O)[C@]1(C)O [azithromycin]
[1]
  concentration at 6 h: < 100000 ng/g
  concentration at 24 h: 216000 ng/g
[1]; Average
  concentration at 12 h: 222000 ng/g
  concentration at 24 h: 169000 ng/g
[2]
  antibacterial activity: superior antibacterial activity
[3]
  effect of azithromycin concentration on stability: does not affect the stability of the final product
[4]
  azithromycin concentration in aqueous humor: < 3.8 µg/mL
[5]; ATCC49247, pH 6.5
  MIC: 3 µg/mL (≈ 4.01 µM)
[5]; ATCC49247, pH 7.2
  MIC: 2 µg/mL (≈ 2.67 µM)
[5]; ATCC49247, pH 7.8
  MIC: 1 µg/mL (≈ 1.34 µM)
[6]; ATCC12228, pH 6.5
  MIC: 2.5 µg/mL (≈ 3.34 µM)
[6]; ATCC12228, pH 7.2
  MIC: 1.5 µg/mL (≈ 2 µM)
[6]; ATCC12228, pH 7.8
  MIC: 0.75 µg/mL (≈ 1 µM)
[7]; ATCC25923, pH 6.5
  MIC: 3 µg/mL (≈ 4.01 µM)
[7]; ATCC25923, pH 7.2
  MIC: 1.5 µg/mL (≈ 2 µM)
[7]; ATCC25923, pH 7.8
  MIC: 0.75 µg/mL (≈ 1 µM)
[8]; ATCC29213, pH 6.5
  MIC: 3.25 µg/mL (≈ 4.34 µM)
[8]; ATCC29213, pH 7.2
  MIC: 2.25 µg/mL (≈ 3 µM)
[8]; ATCC29213, pH 7.8
  MIC: 1 µg/mL (≈ 1.34 µM)
[9]; pH 6.5
  MIC: 2.25 µg/mL (≈ 3 µM)
[9]; pH 7.2
  MIC: 1 µg/mL (≈ 1.34 µM)
[9]; pH 7.8
  MIC: 0.75 µg/mL (≈ 1 µM)
[10]; ATCC9027, pH 6.5
  MIC: 200 µg/mL (≈ 267 µM)
[10]; ATCC9027, pH 7.2
  MIC: 25 µg/mL (≈ 33.4 µM)
[10]; ATCC9027, pH 7.8
  MIC: 6.25 µg/mL (≈ 8.34 µM)
[11]; ATCC9006, pH 6.5
  MIC: 3 µg/mL (≈ 4.01 µM)
[11]; ATCC9006, pH 7.2
  MIC: 2 µg/mL (≈ 2.67 µM)
[11]; ATCC9006, pH 7.8
  MIC: 0.5 µg/mL (≈ 0.668 µM)
[12]; pH 6.5
  MIC: 1.5 µg/mL (≈ 2 µM)
[12]; pH 7.2
  MIC: 0.37 µg/mL (≈ 0.494 µM)
[12]; pH 7.8
  MIC: 0.2 µg/mL (≈ 0.267 µM)
[13]; ATCC27853, pH 6.5
  MIC: > 200 µg/mL
[13]; ATCC27853, pH 7.2
  MIC: 50 µg/mL (≈ 66.8 µM)
[13]; ATCC27853, pH 7.8
  MIC: 12.5 µg/mL (≈ 16.7 µM)
[14]; ATCC49619, pH 6.5
  MIC: 1.25 µg/mL (≈ 1.67 µM)
[14]; ATCC49619, pH 7.2
  MIC: 0.25 µg/mL (≈ 0.334 µM)
[14]; ATCC49619, pH 7.8
  MIC: 0.15 µg/mL (≈ 0.2 µM)
[15]
  concentration at 6 h: < 200000 ng/g
